Test results reported in US7427488B2, “Purified and isolated platelet calcium channel nucleic acids and polypeptides and therapeutic and screening methods using same” (The University of North Carolina at Chapel Hill, priority 2000, dated 2008).

Tests used:
Type in all cases: cell-based, human
[1] = system: platelet surface activation markers; test: Cell surface markers of platelet activation, overall statement; conditions: Annexin V, PAC1, CD62
Description: (§1) Human blood was collected in acid-citrate-dextrose (ACD, 85 mM trisodium citrate, 70 mM citric acid, 111 mM dextrose). Platelet rich plasma (PRP) was prepared by centrifugation of anticoagulated blood at 25° C. for 8 minutes at 200×g. Platelets were separated from plasma via gel filtration by applying the PRP to a 2.7×10 cm SEPHAROSE™ CL4B column (Amersham Biosciences Corp., Piscataway, N.J., United States of America) equilibrated with modified Tyrode's buffer (145 mM NaCl, 4 mM KCl, 1 mM MgSO4, 6 mM glucose, 10 mM Na-HEPES). Gel filtered platelets were collected and adjusted to a concentration of about 200×10^6 platelets/ml.
(§2) Platelets were stained for cell surface activation markers according to “Flow Cytometric Analysis of Platelets”. Monoclonal Antibodies Source Book. Vol. Section 2.19 (Becton, Dickinson And Co., Franklin Lakes, N.J., United States of America). Briefly, after treatment with agonists or antagonists as above, cells were activated with 0.167 units/ml thrombin (concentration chosen based on [Ca^2+ ]i studies) for 1 minute in the presence of 1 μM CaCl2, and then stained with the combination of CD61 PerCP and Annexin V FITC, or PAC-1 FITC, CD61 PerCP, and CD62 PE for 15 minutes at room temperature in the dark. […] Cells were analyzed on a FACSCAN™ flow cytometer. Mean cell fluorescence (MCF) was compared to control platelets (thrombin only) for each experimental condition. […]

[2] = system: platelet VDCC (thrombin-activated platelets); test: Flow cytometric analysis of [Ca2+]i in thrombin-activated platelets; conditions: for effect on [Ca2+]i (in words): thrombin-activated platelets
Description: The conduction of calcium by the VDCC is measured in vitro by measuring changes in cytoplasmic free (ionized) calcium concentrations. Cytoplasmic calcium concentrations are measured by performing flow cytometric analysis with the calcium indicators fluo-3 and fura red as detailed by Novak & Rabinovitch, 1994. Briefly, platelets in whole blood, platelet rich plasma or biological buffers are incubated with esters of fluo-3 and fura red, and then aspirated into the flow cytometric instrument for measurement of calcium-dependent fluorescent changes. Cytoplasmic calcium concentrations are calculated from the ratio or fluo-3 and fura red relative fluorescence intensities. Experiments are performed with increasing doses of VDCC inhibitors with platelets that are in the resting state and subjected to different concentrations of activation agonists and VDCC antagonists and agonists.
as §1
PRP (prepared as above) was incubated with 5 μM Fura 2-AM and 5 μM Fluo 3-AM for 20 minutes at 37° C. […] Thrombin was then added to a final concentration of 0.0167, 0.05, 0.167 or 0.5 units/ml and mean cell fluorescence (MCF) of Fura 2 and Fluo 3 was measured at 1 minute on a FACSCAN™ (BD Biosciences, San Jose, Calif., United States of America) flow cytometer as per Novak & Rabinovitch, 1994. The ratio of fluo 3 to fura 2 MCF was calculated and compared to controls for each experimental condition.

gel-filtered platelets = test: Platelet aggregation (Chrono-log aggregometer); conditions: 50 nM nitrendipine or 5 μM Bay K(+); various concentrations of thrombin
Description: as §1
Gel-filtered platelets at about 200×10^6/ml were incubated for 2 hours with 1:200 MA3-920, 50 nM nitrendipine, 5 μM Bay K(−), or 5 μM Bay K(+). […] Results were analyzed with the AGGROLINK® software (Chrono-log Corp.).

[3] = system: PAC1 (activated GPIIb/IIIa) on platelet surface; test: Cell surface markers of platelet activation by flow cytometry: PAC1; conditions: thrombin-activated platelets
Description: as §1, §2

[4] = system: CD62 (PADGEM; P-selectin) on platelet surface; test: Cell surface markers of platelet activation by flow cytometry: CD62; conditions: thrombin-activated platelets
Description: as §1, §2

[5] = system: Annexin-V (phosphatidylserine) on platelet surface; test: Cell surface markers of platelet activation by flow cytometry: Annexin V binding; conditions: thrombin-activated platelets
Description: as §1, §2

Structure (SMILES)	effect on platelet surface activation markers (in words) [1]	effect on [Ca2+]i (in words) [2]	effect on (the rate of) platelet aggregation (in words) (gel-filtered platelets)	decrease in PAC1 [3] [%]	decrease in CD62 [4] [%]	[Ca2+]i ([2]; 5 μM, at one minute, thrombin 0.0167 to 0.5 units/ml (FIG. 8))	increase in annexin V binding [5] [%]	reduction (decrease) in annexin V binding / PS exposure [5] [%]
COC(=O)C1=C(C)NC(C)=C([N+](=O)[O-])[C@@H]1c1ccccc1C(F)(F)F [Bay K (+)]	no significant effect	no significant effect	no significant effect					
COC(=O)C1=C(C)NC(C)=C([N+](=O)[O-])[C@H]1c1ccccc1C(F)(F)F [Bay K (−)]		trend towards increased		9	4	increase	56	
CCOC(=O)C1=C(C)NC(C)=C(C(=O)OC)C1c1cccc([N+](=O)[O-])c1 (stereo not shown) [Nitrendipine, nitrendipine]			no effect					22
